This is an account of results in patent publication US5204352A, “Compounds exhibiting anti-parasitic activity and a method for their use” (The United States of America as represented by the …, priority 1987, dated 1993).

This assay deals with Trypanosoma rhodesiense. In words: In vivo trypanocidal activity in infected mice (protocol based on Rane et al.). Also on record: Activity at dosage, value in parentheses (increase in survival): unit not given here. The settings on record: for Activity at dosage (C = Cures) / Activity at dosage, value in parentheses (increase in survival): peritoneal (Table 2). Here is the method:
The compounds of the present invention were evaluated biologically in vivo with groups of 5 mice at various dose levels. Unless otherwise indicated, the data are for subcutaneous administration. Dose levels marked with an asterisk are for peritoneal administration in a HEC+T medium. In addition, Table 2 present results of peritoneal administration with substituted quanylhydrazones. The biological evaluation was done according to a standard protocol based on the method described by Rane et al., Amer. J. Trop. Med Hyg. 25:395 (1976). […]

Setting [1] is: 424* mg/kg, peritoneal in HEC+T medium (Table I).
[2] abbreviates: 106* mg/kg, peritoneal in HEC+T medium (Table I).

`CN=C(N)NN=Cc1ccc(-c2c([N+](=O)[O-])n3ccccc3[n+]2C)cc1` [BK47958]: under “1.66 mg/kg, subcutaneous”, the Increase in survival is listed as 3.0 days and the “Trypanocidal activity, cures” value is 8/10.

As for `CCN=C(NCC)NN=Cc1ccc(OCc2n(C)cc[n+]2C)cc1` [BL28038], where the note is “13 mg/kg, subcutaneous”, the “Trypanocidal activity, cures” value is listed as 3/5.

Consider `C[n+]1c(C=Cc2ccc(C=NNC3=NCCCN3)cc2)cn2ccccc21` [BL11202], for which the “Trypanocidal activity, cures” value by setting is: (0.4 mg/kg, subcutaneous) 5/5; (1.6 mg/kg, subcutaneous) 9/10; (6.6 mg/kg, subcutaneous) 5/5; (26 mg/kg, subcutaneous) 15/15. The Increase in survival (1.6 mg/kg, subcutaneous) is 6.8 days.

As for `CC(=O)Nc1ccc(-c2cn3cc(C)ccc3[n+]2C)cc1` [BJ84938], the Increase in survival worked out at 1.3 days (106 mg/kg, subcutaneous); 5.9 days (212 mg/kg, subcutaneous); 8.5 days (424 mg/kg, subcutaneous). In addition, the “Trypanocidal activity, cures” value is, setting by setting: (106 mg/kg, subcutaneous) 1/10; (212 mg/kg, subcutaneous) 1/5; (424 mg/kg, subcutaneous) 7/10.

`C[n+]1c(-c2ccc(C=NNC(=N)N)cc2)cn2ccsc21` [BK21909]: under “13.3 mg/kg, subcutaneous”, the “Trypanocidal activity, cures” value was 5/5.

For the compound `Cc1ccc2n(c1)cc(-c1ccc(C=NNc3nc[nH]n3)cc1)[n+]2C` [BK51961], the “Activity at dosage (C = Cures)” value runs as follows: (13 mg/kg) “INAC”; (26 mg/kg) “INAC”; (53 mg/kg) “INAC”. For the same compound, the “Activity at dosage, value in parentheses (increase in survival)” value (from here on “Activity at dosage … (increase in survival)”) reads like this: (106 mg/kg) 5.5; (212 mg/kg) 6.3; (424 mg/kg) 6.0.

In the case of `C[n+]1c(C=Cc2ccc(C=NNC(=N)N3CCCC3)cc2)cn2ccccc21` [BL12165], the Increase in survival reads like this: (1.6 mg/kg, subcutaneous) 5.2 days; (3.3 mg/kg, subcutaneous) 12.3 days. Moreover, the “Trypanocidal activity, cures” value is, setting by setting: (1.6 mg/kg, subcutaneous) 6/10; (3.3 mg/kg, subcutaneous) 2/5; (13 mg/kg, subcutaneous) 10/10; (26 mg/kg, subcutaneous) 15/15.

As to `CN(C)C(=N)NN=Cc1ccc(-c2c([N+](=O)[O-])n3ccccc3[n+]2C)cc1` [BK50268], the “Activity at dosage (C = Cures)” value is, setting by setting: (3.3 mg/kg) “INAC”; (6.7 mg/kg) “INAC”. For the same compound, the “Activity at dosage … (increase in survival)” value runs as follows: (13 mg/kg) 4.5; (26 mg/kg) 5.0; (53 mg/kg) 9.9; (106 mg/kg) 12.5.

With `C[n+]1c(-c2ccc(C=NNC(N)=S)cc2)cn2ccccc21` [BJ90721], the Increase in survival (26 mg/kg, subcutaneous) is recorded as 4.4 days; the Increase in survival (53 mg/kg, subcutaneous) was determined as 7.8 days; the Increase in survival (106 mg/kg, subcutaneous) was 7.5 days; the Increase in survival (212 mg/kg, subcutaneous) worked out at 18.0 days; the Increase in survival under setting [1] came to 1.9 days. Further, the “Trypanocidal activity, cures” value (53 mg/kg, subcutaneous) is 1/5; the “Trypanocidal activity, cures” value (106 mg/kg, subcutaneous) is recorded as 3/5; the “Trypanocidal activity, cures” value (212 mg/kg, subcutaneous) is reported as 4/5; the “Trypanocidal activity, cures” value (424 mg/kg, subcutaneous) is on record as 5/5; the “Trypanocidal activity, cures” value under setting [1] was 1/10.

Take `Cn1cc[n+](C)c1C=Cc1ccc(C=NNC2=NCCCN2)cc1` [BL21584]: the “Trypanocidal activity, cures” value is reported as 5/5 (6.6 mg/kg, subcutaneous) and 10/10 (13 mg/kg, subcutaneous).

`CSC(=N)NN=Cc1ccc(-c2cn3ccccc3[n+]2C)cc1` [BK47921]: the “Trypanocidal activity, cures” value (26.5 mg/kg, subcutaneous) is listed as 5/5.

For `C[n+]1c(-c2ccc(C(=N)N)cc2)cn2cc(C(=N)N)ccc21` [BK42748], under “26.5 mg/kg, subcutaneous”, the Increase in survival is recorded as 2.3 days and the “Trypanocidal activity, cures” value was 2/5. Also, for the setting “53 mg/kg, subcutaneous”, the Increase in survival was 3.0 days and the “Trypanocidal activity, cures” value is reported as 2/5.

On to `C[n+]1ccccc1COc1ccc(C=NNC2=NCCCN2)cc1` [BL07646], for which the Increase in survival was determined as 3.9 days (1.6 mg/kg, subcutaneous); 9.9 days (6.6 mg/kg, subcutaneous); 4.0 days (13 mg/kg, subcutaneous). In addition, the “Trypanocidal activity, cures” value is, setting by setting: (1.6 mg/kg, subcutaneous) 1/10; (6.6 mg/kg, subcutaneous) 3/5; (13 mg/kg, subcutaneous) 9/10.

With `Cc1ccc2n(c1)cc(-c1ccc(C(=N)N)cc1)[n+]2C` [BK46166], the Increase in survival is reported as 4.5 days (26.5 mg/kg, subcutaneous); 1.6 days (53 mg/kg, subcutaneous); 5.2 days (106 mg/kg, subcutaneous). For the same compound, the “Trypanocidal activity, cures” value is on record as 2/5 (26.5 mg/kg, subcutaneous); 2/5 (53 mg/kg, subcutaneous); 2/5 (106 mg/kg, subcutaneous).

In the case of `C=CC[n+]1c(-c2ccc(NC(C)=O)cc2)cn2ccccc21` [BJ58296], under “26.5 mg/kg, subcutaneous”, the Increase in survival is given as 5.0 days and the “Trypanocidal activity, cures” value is listed as 7/10.

For `C[n+]1c(-c2ccc(C=NNC(=N)N)cc2)cn2cc(Cl)ccc21` [BK13069], the “Trypanocidal activity, cures” value (6.65 mg/kg, subcutaneous) is recorded as 5/5.

On to `C[n+]1c(-c2ccc(C=NNC3=NCCN3)cc2)cn2ccsc21` [BK62620], for which, under “13.3 mg/kg, subcutaneous”, the Increase in survival is 28.0 days and the “Trypanocidal activity, cures” value was 9/10.

In the case of `C[n+]1cccc(COc2ccc(C=NNC(=N)N3CCCC3)cc2)c1` [BL10027], the Increase in survival (0.8 mg/kg, subcutaneous) came out at 5.2 days. In addition, the “Trypanocidal activity, cures” value runs as follows: (0.8 mg/kg, subcutaneous) 7/10; (3.3 mg/kg, subcutaneous) 5/5; (13 mg/kg, subcutaneous) 5/5.

As for `C[n+]1c(-c2ccc(C(=N)N)cc2)c([N+](=O)[O-])n2ccccc21` [BK42757], the Increase in survival reads like this: (53 mg/kg, subcutaneous) 2.5 days; (106 mg/kg, subcutaneous) 3.0 days. Moreover, the “Trypanocidal activity, cures” value is listed as 1/5 (53 mg/kg, subcutaneous) and 1/5 (106 mg/kg, subcutaneous).

On to `C[n+]1c(-c2ccc(C=NNC(=N)N)cc2)c([N+](=O)[O-])n2ccccc21` [BK47985], for which the Increase in survival (1.6 mg/kg, subcutaneous) is 7.0 days and the Increase in survival (6.6 mg/kg, subcutaneous) amounted to 24.0 days. Besides, the “Trypanocidal activity, cures” value runs as follows: (1.6 mg/kg, subcutaneous) 3/10; (3.3 mg/kg, subcutaneous) 5/5; (6.6 mg/kg, subcutaneous) 4/5.

On to `CC(=O)Nc1ccc(-c2cn3c(C)cc(C)cc3[n+]2C)cc1` [BJ90703], for which the Increase in survival is given as 8.9 days (26 mg/kg, subcutaneous); 2.9 days (106 mg/kg, subcutaneous); 9.4 days (424 mg/kg, subcutaneous); 3.4 days under setting [1]. Besides, the “Trypanocidal activity, cures” value by setting is: (26 mg/kg, subcutaneous) 1/5; (106 mg/kg, subcutaneous) 4/5; (424 mg/kg, subcutaneous) 3/5; under setting [1], 1/5.

For the compound `C[n+]1c(-c2ccc(C(N)=NO)cc2)cn2cc(Cl)ccc21` [BK46193], where the note is “106 mg/kg, subcutaneous”, the Increase in survival is given as 5.2 days and the “Trypanocidal activity, cures” value is recorded as 1/5. Where the note is “212 mg/kg, subcutaneous”, the Increase in survival is 2.9 days and the “Trypanocidal activity, cures” value was 4/5.

For the compound `Cc1ccc2n(c1)cc(-c1ccc(C(N)=NO)cc1)[n+]2C` [BK13087], where the note is “53 mg/kg, subcutaneous”, the Increase in survival was determined as 2.3 days and the “Trypanocidal activity, cures” value was 2/5.

Consider `CC(=O)Nc1ccc(-c2cn3ccc4ccccc4c3[n+]2C)cc1` [BJ83235], for which, for the setting “53 mg/kg, subcutaneous”, the Increase in survival was determined as 1.7 days and the “Trypanocidal activity, cures” value was 1/5. For the setting “212 mg/kg, subcutaneous”, the Increase in survival came out at 2.9 days and the “Trypanocidal activity, cures” value is recorded as 4/5.

On to `C[n+]1c(-c2ccc(C=CC=NNC(=N)N)cc2)cn2ccccc21` [BL07815], for which the “Trypanocidal activity, cures” value is on record as 0/10 (1.6 mg/kg, subcutaneous); 5/5 (3.3 mg/kg, subcutaneous); 5/5 (6.6 mg/kg, subcutaneous); 10/10 (13 mg/kg, subcutaneous); 15/15 (26 mg/kg, subcutaneous); 5/5 (53 mg/kg, subcutaneous). Besides, where the note is “106 mg/kg, subcutaneous”, the “Trypanocidal activity, cures” value is 10/10.

As to `C[n+]1c(-c2ccc(C=NNC(N)=O)cc2)cn2ccccc21` [BJ90730], the Increase in survival is 7.7 days (26 mg/kg, subcutaneous); 10.9 days (106 mg/kg, subcutaneous); 1.9 days under setting [2]; 4.8 days under setting [1]. Further, the “Trypanocidal activity, cures” value by setting is: (26 mg/kg, subcutaneous) 1/5; (106 mg/kg, subcutaneous) 4/5; under setting [2], 1/10; under setting [1], 3/10.

Regarding `C[n+]1c(-c2ccc(C=NNC(=N)N)cc2)cn2ccccc21` [BJ90749], the Increase in survival by setting is: (0.21 mg/kg, subcutaneous) 2.5 days; (0.42 mg/kg, subcutaneous) 5.4 days; (0.83 mg/kg, subcutaneous) 6.2 days. For the same compound, the “Trypanocidal activity, cures” value runs as follows: (0.21 mg/kg, subcutaneous) 1/5; (0.42 mg/kg, subcutaneous) 2/10; (0.83 mg/kg, subcutaneous) 8/10; (1.6 mg/kg, subcutaneous) 10/10; (3.3 mg/kg, subcutaneous) 5/5; (6.6 mg/kg, subcutaneous) 5/5. In addition, for the setting “13.3 mg/kg, subcutaneous”, the “Trypanocidal activity, cures” value was 10/10. The “Activity at dosage … (increase in survival)” value (13 mg/kg) worked out at 4.0.

Turning to `Cn1cc(-c2ccc(C=NNC(N)=O)cc2)[n+](C)c1` [BK23994], the Increase in survival (424 mg/kg, subcutaneous) was 5.8 days.

As to `C[n+]1c(-c2ccc(C(N)=NO)cc2)cn2ccsc21` [BK16499], where the note is “26 mg/kg, subcutaneous”, the Increase in survival came to 2.7 days and the “Trypanocidal activity, cures” value was 2/10. Under “53 mg/kg, subcutaneous”, the Increase in survival was found to be 4.7 days and the “Trypanocidal activity, cures” value is 2/10.

With `C[n+]1c(-c2ccc(C=CC=NNC3=NCCCN3)cc2)cn2ccccc21` [BL07824], the “Trypanocidal activity, cures” value by setting is: (3.3 mg/kg, subcutaneous) 5/5; (6.6 mg/kg, subcutaneous) 5/5; (13 mg/kg, subcutaneous) 5/5.
